Source: US7829575B2, “Methods for treating androgen receptor related disorders” (University of Cincinnati, priority 2006, dated 2010)
Where two headings read alike, the source gives them in different places.

Tests used:
[1] = test system: LNCaP cells (mutant AR, H877A); experiment: LNCaP cell growth, MTT staining; type: cell-based; conditions: for inhibition at 10 µM: Homo sapiens, LNCaP, 96 h
Text: (§1) Viable cells are stained with MTT (3-(4,5-dimethylthiazol-2-yl)-2,5-diphenyltetrazolium bromide). *, **, and *** designate p<0.05, <0.01, and 0.001, respectively, compared with controls.

AR N/C interaction = target: T1, AR N/C interaction (Homo sapiens, UniProt P10275); experiment: AR N/C interaction, mammalian two-hybrid luciferase in HeLa cells; type: cell-based; conditions: 24 hr
T1 construct: the AR LBD and GAL4 DBD fusion protein (GAL4-LBD); expressed in transfected cells; host or cells: HeLa
T1 sequence (P10275 669-900 limits assumed): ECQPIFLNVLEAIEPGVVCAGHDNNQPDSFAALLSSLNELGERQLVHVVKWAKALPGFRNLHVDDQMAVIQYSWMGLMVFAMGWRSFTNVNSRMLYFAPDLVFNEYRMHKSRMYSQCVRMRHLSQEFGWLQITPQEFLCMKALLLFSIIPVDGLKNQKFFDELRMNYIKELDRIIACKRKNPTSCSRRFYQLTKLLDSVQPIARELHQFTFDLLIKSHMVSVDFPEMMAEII

22Rv1 cells [2] = experiment: Cellular PSA and AR protein, western blotting; type: cell-based; conditions: 24 hr
[3] = test system: LAPC-4 cells (wildtype AR); experiment: Cellular PSA and AR protein, western blotting; type: cell-based
22Rv1 cells [4] = experiment: PSA mRNA expression, real-time RT-PCR; type: cell-based; conditions: CMEM, 24 hr, dose response (FIG. 7A)
Experimental: (§2) In FIG. 7 LNCaP or 22Rv1 cells (A) are treated for 24 hr with DL3 and total RNA is extracted and analyzed by real-time RT-PCR. […] PSA mRNA in LNCaP cells is approximately 20 fold higher than that in 22Rv1 cells (FIG. 7A).

LNCaP cells [5] = experiment: Expression of AR-regulated genes, quantitative RT-PCR (Table 1); type: cell-based; conditions: DL3 20 μM for 24 hr
Experimental: To evaluate the specificity of the effects of DL3, expression of several other genes are determined by quantitative RT-PCR. […] In contrast, DL3 enhances expression of prostate-specific membrane antigen (PSMA), which is repressed by AR activation.

LNCaP cells [6] = experiment: PSA and AR mRNA expression, RT-PCR; type: cell-based; conditions: 24 hr
Experimental: as §2

LNCaP-Flut-R cells [7] = experiment: Growth of Flut-refractory LNCaP cells, MTT; type: cell-based; conditions: 10 μM, 4 days, MTT (FIG. 2F)
Text: as §1

LNCaP-Flut-R cells [8] = experiment: PSA secretion, ELISA of culture supernatant; type: cell-based; conditions: 1 nM DHT, 10 μM, 48 hr (FIG. 5D)
Experimental: (§3) For the following discussion, see FIG. 5, where androgen-starved LNCaP, LNCaP-Flut-R, or LNCaP-Nilut-R cells are plated into 96-well plates at 2×10^4 cells/wells in SMEM and treated for 48 hr. PSA in the culture supernatant is determined by using an enzyme-linked immunosorbent assay (ELISA) kit. PSA levels are normalized by cell density. […] The DHT-induced production of PSA is reduced by approximately 50% in cells treated with 5 μM of DL3 (FIG. 5B). […] PSA production is elevated in LNCaP-Flut-R and LNCaP-Nilut-R cells compared with that in their parental cells (FIG. 5D).

LNCaP-Nilut-R cells = experiment: PSA secretion, ELISA of culture supernatant; type: cell-based; conditions: 1 nM DHT, 10 μM, 48 hr (FIG. 5D)
Experimental: as §3

AR-AF1 (LBD deleted) = experiment: PSA promoter luciferase reporter in PC-3 cells co-transfected with AR-AF1; conditions: 20 μM, 24 hr
LNCaP cells [9] = experiment: Expression of AR-regulated genes, quantitative RT-PCR (Table 1); type: cell-based; conditions: data not shown
LNCaP-ARR2-GFP cells = experiment: AR-regulated GFP expression in LNCaP-ARR2-GFP cells; type: cell-based; conditions: SMEM, absence of DHT; DL3 at 25 nM or 20 μM
LNCaP cells [10] = experiment: AR protein stability and hsp70/hsp90 expression, western blotting; type: cell-based
Experimental: Cell lysates are prepared and analyzed by western blotting. […] To further determine how DL3 downregulates AR, LNCaP cells are incubated for 24 hr with DL3 in the absence or presence of proteasome inhibitor MG132.
Hsp70 and hsp90 are key molecular chaperones in cells. Along with several co-chaperones, hsp70 and hsp90 play critical roles in folding and assembling AR to a high-affinity ligand binding conformation and in regulating AR activation that occurs following hormone binding. Therefore, the possibility of whether the downregulation of AR protein by DL3 is mediated by its effects on hsp70 or hsp90 expression is investigated.
Thus, the effects of DL3 on hsp70 expression are further investigated in several other prostate cancer cell lines, including LAPC-4 (wildtype AR), 22Rv1 (mutant AR), and AR-negative cell lines PC-3, DU-145, PWE1-NB14 (ATCC), and PWE1-NB26 (ATCC). […] In FIG. 10, LAPC-4 (in SMEM) and all other (in CMEM) cells are treated for 24 hr and analyzed by western blotting. LNCaP cells are transfected for 24 hr with hsp70 or its control vector, then treated for 24 hr.

[11] = 20 μM DL3, time course to 48 hr (FIG. 9A)

DHT-induced N/C interaction (AR N/C interaction; 1 nM DHT, different concentrations): not significantly altered
luciferase activity (N/C interaction), compound alone (AR N/C interaction; no DHT): not significantly altered
Structure (SMILES): CC(C)(C)c1ccc(OCCSc2nc(=O)cc(N)[nH]2)cc1 [DL3, 6-amino-2-(2-4-tert-butyl-phenoxy)-ethylsulfanyl-1H-pyrimidin-4-one]
concentration at which inhibition of DHT-stimulated growth reaches a plateau ([1]; 1 nM DHT, 4 days): greater than 10 μM
effect on DHT-stimulated growth of LNCaP cells ([1]; 1 nM DHT, SMEM, 4 days, dose response): inhibits DHT-stimulated growth
growth of parental LNCaP cells ([1]; 10 μM, 4 days, MTT (FIG. 2F)): significantly inhibits growth
additive effect on growth of DL3 with Flut, Nilut or Bical ([1]; CMEM, 4 days, 5 μM DL3 and 10 μM of Flut, Nilut, or Bical): No significant additive effect
inhibition at 10 µM ([1]; read-out: inhibition of growth of LNCaP cells in the absence of DHT): 27%
inhibition at 10 µM ([1]; read-out: inhibition of growth of LNCaP cells in the presence of DHT): 82%
growth of LNCaP cells in the absence of DHT ([1]; no DHT, dose response): inhibits growth
expression of AR protein (22Rv1 cells [2]; 5 and 10 μM): not significantly altered
expression of AR protein (22Rv1 cells [2]; 20 and 40 μM): reduced
PSA protein expression (22Rv1 cells [2]; CMEM, increasing concentrations): inhibitory effects
AR protein expression ([3]; 20 μM, 24 hr): similarly reduced
DHT-induced PSA protein expression ([3]; SMEM, 1 nM DHT, 20 μM DL3, 24 hr): inhibitory effects
expression of PSA mRNA (22Rv1 cells [4]): inhibits the expression of PSA mRNA
IL-8 expression DL3/CTR (%) (LNCaP cells [5]): 107%
IL-8 expression level relative to β-actin (LNCaP cells [5]): 8.59e−04
PSA expression DL3/CTR (%) (LNCaP cells [5]): 3%
PSA expression level relative to β-actin (LNCaP cells [5]): 3.03e−02
PSCA expression DL3/CTR (%) (LNCaP cells [5]): 55%
PSCA expression level relative to β-actin (LNCaP cells [5]): 1.90e−04
PSMA expression DL3/CTR (%) (LNCaP cells [5]): 379%
PSMA expression level relative to β-actin (LNCaP cells [5]): 1.35e−01
hK2 expression DL3/CTR (%) (LNCaP cells [5]): 18%
hK2 expression level relative to β-actin (LNCaP cells [5]): 4.05e−03
DHT-stimulated PSA mRNA expression (LNCaP cells [6]; 20 μM, 1 nM DHT): abolishes
basal level of PSA mRNA (LNCaP cells [6]; 20 μM, androgen-starved): significantly reduces
expression of AR mRNA (LNCaP cells [6]; 1 nM DHT, 20 μM DL3 or Bical): partially downregulated
expression of PSA mRNA (LNCaP cells [6]; CMEM, dose response (FIG. 7A)): inhibits the expression of PSA mRNA
growth of LNCaP-Flut-R cells (LNCaP-Flut-R cells [7]): significantly inhibits growth
PSA production in LNCaP-Flut-R cells (LNCaP-Flut-R cells [8]): inhibits PSA production
PSA production in LNCaP-Nilut-R cells (LNCaP-Nilut-R cells): inhibits PSA production
activation of PSA promoter activity by AR-AF1 (AR-AF1 (LBD deleted)): does not inhibit
PSMA expression at the protein level (LNCaP cells [9]): Enhancement of PSMA expression
GFP expression (AR agonist activity) (LNCaP-ARR2-GFP cells): does not induce GFP expression
time after exposure at which AR downregulation can be observed (LNCaP cells [10]; 20 μM): 8 h
time after treatment at which reduction of hsp70 starts (LNCaP cells [10]; 20 μM DL3): 4 h
expression of hsp70 (LNCaP cells [10]; [11]): reduced
expression of hsp90 (LNCaP cells [10]; [11]): not
partial reversal by DHT of the CHX-diminished AR expression (LNCaP cells [10]; 24 hr with DHT, DL3 and CHX (FIG. 9B, lane 7 vs. lane 6)): also blocked
AR downregulation by DL3 under overexpression of hsp70 (LNCaP cells [10]; LNCaP cells transfected 24 hr with hsp70, then treated 24 hr): not able to protect AR downregulation
elevation of AR and PSA expression by DHT (LNCaP cells [10]; SMEM, 24 hr (FIG. 9B, lane 4 vs. lane 3)): blocked
AR protein levels (LNCaP cells [10]; dose-dependent): downregulates AR protein levels
